Assay results reported in patent US20230399341A1, “7-PHENYL SUBSTITUTED 2-AMINOQUINAZOLINE INHIBITORS OF HPK1” (MERCK SHARP & DOHME LLC, priority 2020, published 2023).

These compounds were tested against T1, Human HPK1, catalytic domain (Homo sapiens, UniProt Q92918) (assay: HPK1-SLP76 TR-FRET Assay). Settings: 75 pM HPK1, ATP 10 uM, SLP76 10 nM, 30 min pre-incubation, 60 min reaction.
T1 sequence (Q92918 1-346): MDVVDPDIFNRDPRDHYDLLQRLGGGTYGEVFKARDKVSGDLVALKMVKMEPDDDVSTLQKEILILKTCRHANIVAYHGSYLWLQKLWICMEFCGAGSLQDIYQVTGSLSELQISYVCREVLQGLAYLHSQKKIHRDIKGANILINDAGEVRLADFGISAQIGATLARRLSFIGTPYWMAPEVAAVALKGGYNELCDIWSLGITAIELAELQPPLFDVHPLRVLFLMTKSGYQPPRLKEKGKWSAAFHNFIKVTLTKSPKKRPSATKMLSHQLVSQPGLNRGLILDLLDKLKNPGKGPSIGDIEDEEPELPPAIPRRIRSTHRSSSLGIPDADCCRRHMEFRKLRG
Type: biochemical

Row | SMILES | IC50 [nM]
1 | COc1cc2c(cc1Nc1ncc3ccc(-c4cncc(S(C)(=O)=O)c4)cc3n1)CNCC2 [Compound 1-43, N-(6-methoxy-1,2,3,4-tetrahydroisoquinolin-7-yl)-7-[5-(methylsulfonyl)pyridin-3-yl]quinazolin-2-amine] | 82.8
2 | COc1cc2c(cc1Nc1ncc3ccc(-c4cccc(N)c4)cc3n1)CNCC2 [Compound 1-58, 7-(3-aminophenyl)-N-(6-methoxy-1,2,3,4-tetrahydroisoquinolin-7-yl)quinazolin-2-amine] | 76.2
3 | COc1cc2c(cc1Nc1ncc3cc(F)c(-c4cnc5c(c4C)NCCO5)cc3n1)CN(C)CC2 [Compound 1-95, 6-fluoro-N-(6-methoxy-2-methyl-1,2,3,4-tetrahydroisoquinolin-7-yl)-7-(8-methyl-2,3-dihydro-1H-pyrido[2,3-b][1,4]oxazin-7-yl)quinazolin-2-amine] | 2.32
4 | COc1cc2c(cc1Nc1ncc3ccc(-c4cccc(CN)c4)cc3n1)CNCC2 [Compound 1-61, 7-[3-(aminomethyl)phenyl]-N-(6-methoxy-1,2,3,4-tetrahydroisoquinolin-7-yl)quinazolin-2-amine] | 13.9
5 | CNC(=O)C(C)c1ccc(Nc2ncc3cc(F)c(-c4cnc5c(c4C)NCCO5)cc3n2)cc1 (single isomer, unassigned) [Compound 1-117, (R or S)-2-(4-{[6-fluoro-7-(8-methyl-2,3-dihydro-1H-pyrido[2,3-b][1,4]oxazin-7-yl)quinazolin-2-yl]amino}phenyl)-N-methylpropanamide] | 0.0705
6 | COc1cc2c(cc1Nc1ncc3ccc(-c4cccc(CNC(C)=O)c4)cc3n1)CN(C)CC2 [Compound 1-98, N-[(3-{2-[(6-methoxy-2-methyl-1,2,3,4-tetrahydroisoquinolin-7-yl)amino]quinazolin-7-yl}phenyl)methyl]acetamide] | 203
7 | COc1cc2c(cc1Nc1ncc3ccc(-c4cnc5c(c4)OCCN5C)cc3n1)CNCC2 [Compound 1-29, N-(6-methoxy-1,2,3,4-tetrahydroisoquinolin-7-yl)-7-(4-methyl-3,4-dihydro-2H-pyrido[3,2-b][1,4]oxazin-7-yl)quinazolin-2-amine] | 85.8
8 | COc1cc2c(cc1Nc1ncc3ccc(-c4ccc(NC(C)=O)nc4)cc3n1)CNCC2 [Compound 1-30, N-(5-{2-[(6-methoxy-1,2,3,4-tetahydroisoquinolin-7-yl)amino]quinazolin-7-yl}pyridin-2-yl)acetamide] | 45.5

Now from value to compound:

Row | IC50 [nM] | SMILES
9 | 290 | COc1cc2c(cc1Nc1ncc3ccc(NCc4cc(C)n(C)n4)cc3n1)CN(C)CC2 [Compound 3-72, N~7~-[(1,5-dimethyl-1H-pyrazol-3-yl)methyl]-N~2~-(6-methoxy-2-methyl-1,2,3,4-tetra-hydroisoquinolin-7-yl)quinaz-oline-2,7-diamine]
10 | 16.6 | COc1cc2c(cc1Nc1ncc3c(N)c(F)c(-c4ccccc4-c4ccnn4C)cc3n1)CN(C)CC2 [Compound 2-65, 6-fluoro-N~2~-(6-methoxy-2-methyl-1,2,3,4-tetrahydroisoquinolin-7-yl)-7-[2-(1-methyl-1H-pyrazol-5-yl)phenyl]quinazoline-2,5-diamine]
11 | 0.082 | Cc1c(-c2cc3nc(Nc4cccc(S(C)(=O)=O)c4)ncc3c(N)c2F)cnc2c1NCCO2 [Compound 2-14, 6-fluoro-7-(8-methyl-2,3-dihydro-1H-pyrido[2,3-b][1,4]oxazin-7-yl)-N~2~- [3-(methylsulfonyl)phenyl] quinazoline-2,5-diamine]
12 | 0.163 | COc1cc2c(cc1Nc1ncc3c(N)c(F)c(-c4cnc5c(c4C)NCCO5)cc3n1)CN(C)CC21CC1 [Compound 2-45, 6-fluoro-N~2~-(6′-methoxy-2′-methyl-2′,3′-dihydro-1′H-spiro[cyclopropane-1,4′-isoquinolin]-7′-yl)-7-(8-methyl-2,3-dihydro-1H-pyrido[2,3-b][1,4]oxazin-7-yl)quinazoline-2,5-diamine]
13 | 377 | COc1cc2c(cc1Nc1ncc3ccc(OCC4CCNCC4)cc3n1)CN(C)CC2 [Compound 4-3, N-(6-methoxy-2-methyl-1,2,3,4-tetrahydroisoquin-olin-7-yl)-7-[(piperidin-4-yl)methoxy]quinazolin-2-amine]
14 | 0.232 | CCS(=O)(=O)Cc1ccc(Nc2ncc3c(N)c(F)c(-c4cnc5c(c4C)NCC(C)(C)O5)cc3n2)c(F)c1 [Compound 2-144, N~2~-{4-[(ethylsulfonyl)methyl]-2-fluorophenyl}-6-fluoro-7-(3,3,8-trimethyl-2,3-dihydro-1H-pyrido[2,3-b][1,4]oxazin-7-yl)quinazoline-2,5-diamine]
15 | 0.0389 | Cc1c(-c2c(F)c(N)c3cnc(Nc4ccc5c(c4)CN(C(C)C)CC5)nc3c2Cl)cnc2c1NCCO2 (single isomer, unassigned) [Compound 2-113, 8-chloro-6-fluoro-N2-(2-isopropyl-1,2,3,4-tetrahydroisoquinolin-7-yl)-7-(8-methyl-2,3-dihydro-1H-pyrido[2,3-b][1,4]oxazin-7-yl)quinazoline-2,5-diamine]
16 | 45.5 | COc1cc2c(cc1Nc1ncc3ccc(N4CC(C)(CO)OC4=O)cc3n1)CN(C)CC2 (racemic) [Compound 3-7, (S and R)-5-(hydroxymethyl)-3-{2-[(6-methoxy-2-methyl-1,2,3,4-tetrahydroisoquinolin-7-yl)amino]quinazolin-7-yl}-5-methyl-1,3-oxazolidin-2-one]
17 | 0.0849 | Cc1c(-c2cc3nc(Nc4ccc5c(c4)CCS5(=O)=O)ncc3c(N)c2F)cnc2c1NCCO2 [Compound 2-43, 5-{[5-amino-6-fluoro-7-(8-methyl-2,3-dihydro-1H-pyrido[2,3-b][1,4]oxazin-7-yl)quinazolin-2-yl]amino}-2,3-dihydro-1H-1-benzothiophene-1,1-dione]
18 | 0.515 | Cc1c(-c2cc3nc(Nc4ccc5c(c4)CN(C)CC5(F)F)ncc3c(N)c2F)cnc2c1NCCO2 [Compound 2-154, N~2~-(4,4-difluoro-2-methyl-1,2,3,4-tetrahydroisoquinolin-7-yl)-6-fluoro-7-(8-methyl-2,3-dihydro-1H-pyrido[2,3-b][1,4]oxazin-7-yl)quinazoline-2,5-diamine]
19 | 424 | Cc1ccc(C#N)cc1-c1cc2nc(Nc3ccc(S(C)(=O)=O)cc3)ncc2c(N)c1F [Compound 2-52, 3-(5-amino-6-fluoro-2-{[4-(methylsulfonyl)phenyl]amino}quinazolin-7-yl)-4-methylbenzonitrile]
20 | 0.782 | COc1ccc(Nc2ncc3c(N)c(F)c(-c4cnc5c(c4C)NCCO5)cc3n2)c(C)n1 [Compound 2-77, 6-fluoro-N~2~-(6-methoxy-2-methylpyridin-3-yl)-7-(8-methyl-2,3-dihydro-1H-pyrido[2,3-b][1,4]oxazin-7-yl)quinazoline-2,5-diamine]
21 | 0.0474 | CN1CCc2ccc(Nc3ncc4c(N)c(F)c(-c5cnc6c(c5Cl)NCCO6)cc4n3)cc2C1 [Compound 2-124, 7-(8-chloro-2,3-dihydro-1H-pyrido[2,3-b][1,4]oxazin-7-yl)-6-fluoro-N~2~-(2-methyl-1,2,3,4-tetrahydroisoquinolin-7-yl)quinazoline-2,5-diamine]
22 | 1.05 | CCC1COC(=O)N1c1ccc2cnc(Nc3cc4c(cc3OC)CCN(C)C4)nc2c1 (single isomer, unassigned) [Compound 3-13, (S or R)-4-ethyl-3-{2-[(6-methoxy-2-methyl-1,2,3,4-tetrahydroisoquinolin-7-yl)amino]quinazolin-7-yl}-1,3-oxazolidin-2-one]
